Measured values taken from the supplement of paper PMC13380429.

Assays:
[1] = test system: A549-ACE2 infected with SARS-CoV-2; test: cell count relative to DMSO; higher = less toxic; conditions: 24 h
[2] = test system: A549-ACE2; test: drug-induced phospholipidosis relative to tamoxifen; higher = more phospholipidosis
[3] = test system: A549-ACE2 infected with SARS-CoV-2; test: SARS-CoV-2 infection rate relative to DMSO; higher = more infection; conditions: 24 h
[4] = test system: Vero E6; test: drug sensitivity score (DSS) for viability; higher = more toxic; extreme values may be limits of the assay; conditions: 72 h
[5] = test system: U2OS; test: as above; conditions: 72 h
[6] = test system: Calu-3; test: as above; conditions: 72 h
[7] = test system: Caco-2; test: as above; conditions: 72 h
[8] = test system: HepG2; test: as above; conditions: 72 h
[9] = test system: Vero E6; test: cell viability relative to DMSO; higher = less toxic; conditions: 72 h
[10] = test system: U2OS; test: as above; conditions: 72 h
[11] = test system: Calu-3; test: as above; conditions: 72 h
[12] = test system: Caco-2; test: as above; conditions: 72 h
[13] = test system: HepG2; test: as above; conditions: 72 h
[14] = test system: Vero E6; test: relative viability EC50 (midpoint between 100% and the lowest measured viability); higher = less toxic; conditions: 72 h
[15] = test system: U2OS; test: as above; conditions: 72 h
[16] = test system: HepG2; test: as above; conditions: 72 h
[17] = test system: A549-ACE2; test: phospholipidosis EC50; higher = less potent phospholipidosis inducer
[18] = test system: A549-ACE2 infected with SARS-CoV-2; test: morphology score (similarity to uninfected cells); higher = more like uninfected cells; conditions: 24 h
[19] = test system: Calu-3; test: relative viability EC50 (midpoint between 100% and the lowest measured viability); higher = less toxic; conditions: 72 h

CC(C)n1nc(C#Cc2ccccc2)c2c(N)ncnc21 [SPP86]
Conditions | SARS-CoV-2 infection rate [%] | cell count [%] | cell viability [%] | morphology score | phospholipidosis EC50 [µM]
[1], 0.3 µM | – | 103 | – | – | –
[1], 3 µM | – | 103 | – | – | –
[1], 10 µM | – | 106 | – | – | –
[1], 30 µM | – | 84 | – | – | –
[3], 0.3 µM | 90 | – | – | – | –
[3], 3 µM | 89 | – | – | – | –
[3], 10 µM | 53 | – | – | – | –
[3], 30 µM | 32 | – | – | – | –
[9], 1 nM | – | – | 99.7 | – | –
[9], 10 nM | – | – | 99.7 | – | –
[9], 100 nM | – | – | 100 | – | –
[9], 1000 nM | – | – | 98.5 | – | –
[9], 10000 nM | – | – | 81.3 | – | –
[10], 1 nM | – | – | 106 | – | –
[10], 10 nM | – | – | 109 | – | –
[10], 100 nM | – | – | 107 | – | –
[10], 1000 nM | – | – | 107 | – | –
[10], 10000 nM | – | – | 75.7 | – | –
[11], 1 nM | – | – | 107 | – | –
[11], 10 nM | – | – | 104 | – | –
[11], 100 nM | – | – | 99.7 | – | –
[11], 1000 nM | – | – | 92.7 | – | –
[11], 10000 nM | – | – | 62.8 | – | –
[12], 1 nM | – | – | 98.1 | – | –
[12], 10 nM | – | – | 98.9 | – | –
[12], 100 nM | – | – | 88.9 | – | –
[12], 1000 nM | – | – | 67.7 | – | –
[12], 10000 nM | – | – | 56.5 | – | –
[13], 1 nM | – | – | 102 | – | –
[13], 10 nM | – | – | 106 | – | –
[13], 100 nM | – | – | 103 | – | –
[13], 1000 nM | – | – | 60.9 | – | –
[13], 10000 nM | – | – | 34.4 | – | –
[17], 24 h | – | – | – | – | 15.1
[18], 0.3 µM | – | – | – | 0.34 | –
[18], 3 µM | – | – | – | 0.41 | –
[18], 10 µM | – | – | – | 0.54 | –
[18], 30 µM | – | – | – | 0.29 | –

drug-induced phospholipidosis [%], [2]
Conditions | 0.3 µM | 0.833333 µM | 3.33333 µM | 6.66667 µM | 10 µM | 30 µM
24 h | 3.29 | 3.69 | 12.6 | 41.4 | 63.6 | 142
48 h | 3.96 | 2.69 | 12.1 | 21.7 | 35.6 | –
72 h | 6.41 | 0.816 | 8.31 | 18.5 | 28.1 | –

Conditions | drug sensitivity score | relative viability EC50 [µM]
[4] | 0.7 | –
[5] | 0.6 | –
[6] | 3 | –
[7] | 6.9 | –
[8] | 8.3 | –
[14] | – | > 10
[15] | – | > 10
[16] | – | 0.858

C[C@H](Oc1cc(-c2cnn(C3CCNCC3)c2)cnc1N)c1c(Cl)ccc(F)c1Cl [crizotinib-(S)]
Conditions | SARS-CoV-2 infection rate [%] | cell count [%] | cell viability [%] | morphology score | phospholipidosis EC50 [µM]
[1], 0.1 µM | – | 100 | – | – | –
[1], 0.3 µM | – | 102 | – | – | –
[1], 1 µM | – | 87 | – | – | –
[1], 3 µM | – | 93 | – | – | –
[1], 10 µM | – | 109 | – | – | –
[1], 30 µM | – | 18 | – | – | –
[3], 0.1 µM | 96 | – | – | – | –
[3], 0.3 µM | 100 | – | – | – | –
[3], 1 µM | 94 | – | – | – | –
[3], 3 µM | 30 | – | – | – | –
[3], 10 µM | 24 | – | – | – | –
[3], 30 µM | 82 | – | – | – | –
[9], 1 nM | – | – | 97.2 | – | –
[9], 10 nM | – | – | 99.6 | – | –
[9], 100 nM | – | – | 100 | – | –
[9], 1000 nM | – | – | 97 | – | –
[9], 10000 nM | – | – | 80.7 | – | –
[10], 1 nM | – | – | 98.3 | – | –
[10], 10 nM | – | – | 96.3 | – | –
[10], 100 nM | – | – | 99.2 | – | –
[10], 1000 nM | – | – | 96 | – | –
[10], 10000 nM | – | – | 41.1 | – | –
[11], 1 nM | – | – | 97.8 | – | –
[11], 10 nM | – | – | 96.2 | – | –
[11], 100 nM | – | – | 100.3 | – | –
[11], 1000 nM | – | – | 100.4 | – | –
[11], 10000 nM | – | – | 40 | – | –
[12], 1 nM | – | – | 93.9 | – | –
[12], 10 nM | – | – | 95.3 | – | –
[12], 100 nM | – | – | 99.2 | – | –
[12], 1000 nM | – | – | 95.1 | – | –
[12], 10000 nM | – | – | 62.1 | – | –
[13], 1 nM | – | – | 100 | – | –
[13], 10 nM | – | – | 108 | – | –
[13], 100 nM | – | – | 104 | – | –
[13], 1000 nM | – | – | 90.9 | – | –
[13], 10000 nM | – | – | 43.3 | – | –
[17], 24 h | – | – | – | – | 1.79
[17], 48 h | – | – | – | – | 3.04
[17], 72 h | – | – | – | – | 3.1
[18], 0.1 µM | – | – | – | 0.15 | –
[18], 0.3 µM | – | – | – | 0.025 | –
[18], 1 µM | – | – | – | 0.27 | –
[18], 3 µM | – | – | – | 0.71 | –
[18], 10 µM | – | – | – | 0.36 | –
[18], 30 µM | – | – | – | -0.08 | –

drug-induced phospholipidosis [%], [2]
Conditions | 0.3 µM | 0.833333 µM | 3.33333 µM | 6.66667 µM | 10 µM | 30 µM
24 h | 8.27 | 14.6 | 93.6 | 107 | 67.9 | 67.2
48 h | 6.57 | 10.9 | 65 | 95.4 | 72.5 | 79.1
72 h | 6.4 | 9.01 | 64.9 | 97.9 | 71.4 | 94.9

Conditions | drug sensitivity score | relative viability EC50 [µM]
[4] | 0.8 | –
[5] | 3.9 | –
[6] | 3.2 | –
[7] | 2.6 | –
[8] | 4.45 | –
[15] | – | 2.61
[16] | – | 2.22
[19] | – | 3.21
